The source of these data is patent US20220340597A1, “HEXAHYDRO-1H-PYRAZINO[1,2-A]PYRAZINE COMPOUNDS FOR THE TREATMENT OF AUTOIMMUNE DISEASE” (Hoffmann-La Roche Inc., priority 2019, published 2022).

The structures appear in SMILES notation. pIC50: −log10 of the molar value.

For one test, the target named is T1, human TLR8 (Homo sapiens, UniProt Q9NR97).
T1 sequence (Q9NR97 27-1041): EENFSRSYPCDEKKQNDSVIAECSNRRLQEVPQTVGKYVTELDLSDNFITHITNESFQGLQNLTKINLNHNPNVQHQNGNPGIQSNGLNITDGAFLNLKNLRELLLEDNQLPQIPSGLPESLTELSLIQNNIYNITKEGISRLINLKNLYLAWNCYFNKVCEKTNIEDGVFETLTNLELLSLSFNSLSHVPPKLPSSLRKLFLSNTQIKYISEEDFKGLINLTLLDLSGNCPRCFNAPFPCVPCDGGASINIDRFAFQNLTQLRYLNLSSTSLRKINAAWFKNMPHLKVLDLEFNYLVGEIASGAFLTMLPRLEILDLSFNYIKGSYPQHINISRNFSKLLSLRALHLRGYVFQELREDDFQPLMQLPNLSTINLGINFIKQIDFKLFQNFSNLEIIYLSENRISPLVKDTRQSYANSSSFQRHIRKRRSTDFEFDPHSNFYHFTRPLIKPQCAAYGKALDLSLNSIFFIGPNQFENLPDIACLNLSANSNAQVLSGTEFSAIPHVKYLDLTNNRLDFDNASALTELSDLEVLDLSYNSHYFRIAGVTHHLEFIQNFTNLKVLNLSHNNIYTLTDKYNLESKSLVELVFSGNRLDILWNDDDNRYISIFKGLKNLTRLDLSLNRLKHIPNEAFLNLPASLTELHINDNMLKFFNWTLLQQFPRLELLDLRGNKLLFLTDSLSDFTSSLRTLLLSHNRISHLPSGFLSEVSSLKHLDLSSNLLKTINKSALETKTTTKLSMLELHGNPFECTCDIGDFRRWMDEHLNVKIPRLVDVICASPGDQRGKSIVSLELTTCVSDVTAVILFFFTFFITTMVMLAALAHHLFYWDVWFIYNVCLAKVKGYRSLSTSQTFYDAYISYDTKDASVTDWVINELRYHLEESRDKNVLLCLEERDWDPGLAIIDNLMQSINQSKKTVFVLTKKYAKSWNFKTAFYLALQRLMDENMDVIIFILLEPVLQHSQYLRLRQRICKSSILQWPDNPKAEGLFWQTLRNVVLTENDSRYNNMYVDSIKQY
The test can be described thus: HEK293-Blue-hTLR-8 cells assay.

The next test concerns the target T2, human TLR7 (Homo sapiens, UniProt Q9NYK1).
T2 construct: host or cells: HEK293 (HEK-Blue hTLR7)
T2 sequence (Q9NYK1 27-1049): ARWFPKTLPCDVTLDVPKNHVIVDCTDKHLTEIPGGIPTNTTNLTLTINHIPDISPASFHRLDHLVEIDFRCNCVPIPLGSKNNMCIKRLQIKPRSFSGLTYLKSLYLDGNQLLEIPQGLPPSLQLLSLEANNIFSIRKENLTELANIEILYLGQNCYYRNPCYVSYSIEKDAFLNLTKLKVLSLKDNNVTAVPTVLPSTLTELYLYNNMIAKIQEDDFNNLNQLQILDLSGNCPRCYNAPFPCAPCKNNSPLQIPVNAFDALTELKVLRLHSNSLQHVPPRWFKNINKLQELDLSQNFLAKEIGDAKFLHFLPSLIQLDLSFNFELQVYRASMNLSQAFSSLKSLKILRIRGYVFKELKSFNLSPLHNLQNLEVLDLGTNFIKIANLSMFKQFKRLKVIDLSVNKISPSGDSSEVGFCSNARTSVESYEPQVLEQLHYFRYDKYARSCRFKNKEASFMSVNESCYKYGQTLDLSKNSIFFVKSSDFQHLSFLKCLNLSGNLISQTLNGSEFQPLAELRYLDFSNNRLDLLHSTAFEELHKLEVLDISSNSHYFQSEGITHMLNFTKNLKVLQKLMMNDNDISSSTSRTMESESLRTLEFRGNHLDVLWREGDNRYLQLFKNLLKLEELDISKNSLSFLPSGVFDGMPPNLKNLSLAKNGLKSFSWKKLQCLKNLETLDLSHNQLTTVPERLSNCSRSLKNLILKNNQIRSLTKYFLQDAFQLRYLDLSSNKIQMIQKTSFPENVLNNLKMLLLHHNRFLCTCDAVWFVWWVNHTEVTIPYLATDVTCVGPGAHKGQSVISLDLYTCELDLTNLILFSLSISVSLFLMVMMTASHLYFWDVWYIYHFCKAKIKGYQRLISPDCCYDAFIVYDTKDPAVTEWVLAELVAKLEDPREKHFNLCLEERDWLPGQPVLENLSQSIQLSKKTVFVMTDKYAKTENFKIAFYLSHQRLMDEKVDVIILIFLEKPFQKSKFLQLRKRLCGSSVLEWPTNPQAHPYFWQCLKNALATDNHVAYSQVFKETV
The test can be described thus: HEK293-Blue-hTLR-7 cells assay. The following applies: HEK293-Blue-hTLR7 cells, R848 stimulation, 20 hrs, SEAP reporter; read-out: HEK/hTLR7 IC50. It is filed as cell-based.

Description for human TLR8: The following tests were carried out in order to determine the activity of the compounds of formula (I) and (Ia) in HEK293-Blue-hTLR-7/8/9 cells assay.
HEK293-Blue-hTLR-8 Cells Assay:
A stable HEK293-Blue-hTLR-8 cell line was purchased from InvivoGen (Cat. #: hkb-htlr8, San Diego, Calif., USA). These cells were originally designed for studying the stimulation of human TLR8 by monitoring the activation of NF-κB. A SEAP (secreted embryonic alkaline phosphatase) reporter gene was placed under the control of the IFN-β minimal promoter fused to five NF-κB and AP-1-binding sites. The SEAP was induced by activating NF-κB and AP-1 via stimulating HEK-Blue hTLR8 cells with TLR8 ligands. Therefore, the reporter expression was declined by TLR8 antagonist under the stimulation of a ligand, such as R848, for incubation of 20 hrs. The cell culture supernatant SEAP reporter activity was determined using QUANTI-Blue™ kit (Cat. #: rep-qb1, Invivogen, San Diego, Calif., USA) at a wavelength of 640 nm, a detection medium that turns purple or blue in the presence of alkaline phosphatase.

With `Cc1cc(N2CCN3[C@@H](C2)CN(c2ccc(C#N)c4ncccc24)C[C@H]3C)nc(N2CC(C)(N)C2)n1` [Example 55, 5-[(4R,9aR)-8-[2-(3-amino-3-methyl-azetidin-1-yl)-6-methyl-pyrimidin-4-yl]-4-methyl-3,4,6,7,9,9a-hexahydro-1H-pyrazino[1,2-a]pyrazin-2-yl]quinoline-8-carbonitrile], the pIC50 against human TLR8 was 7.40; on human TLR7, 7.82.
With `CO[C@@H]1CN(c2ccc(CCN3CCN4[C@@H](C3)CN(c3ccc(C#N)c5ncccc35)C[C@H]4C)nc2)C[C@H]1N` [Example 13, 5-[(4R,9aS)-8-[2-[5-[(3R,4R)-3-amino-4-methoxy-pyrrolidin-1-yl]-2-pyridyl]ethyl]-4-methyl-3,4,6,7,9,9a-hexahydro-1H-pyrazino[1,2-a]pyrazin-2-yl]quinoline-8-carbonitrile], the pIC50 is 8.05 on human TLR8 and 7.59 on human TLR7.
For `N#Cc1ccc(N2CCN3CCN(c4cccc5c4CNC5)CC3C2)c2cccnc12` (centres unmarked) [Example 35, 5-(8-isoindolin-4-yl-3,4,6,7,9,9a-hexahydro-1H-pyrazino[1,2-a]pyrazin-2-yl)quinoline-8-carbonitrile] the same measures were 8.10 and 7.54.
In the same order, the values of `CO[C@@H]1CN(c2ccc(CCN3CCN4[C@@H](C3)CN(c3ccc(C#N)n5nccc35)C[C@H]4C)cc2)C[C@H]1N` [Example 68, 4-[(4R,9aS)-8-[2-[4-[(3R,4R)-3-amino-4-methoxy-pyrrolidin-1-yl]phenyl]ethyl]-4-methyl-3,4,6,7,9,9a-hexahydro-1H-pyrazino[1,2-a]pyrazin-2-yl]pyrazolo[1,5-a]pyridine-7-carbonitrile] are 7.11 and 7.28.
Turning to `[2H]c1ccc2c(N3C[C@@H]4CN(c5ccc([C@@H]6CNCCO6)cc5)CCN4[C@@H](C)C3)ccc(C#N)c2n1` [Example 106, 5-[(4S,9aS)-4-methyl-8-[4-[(2R)-morpholin-2-yl]phenyl]-3,4,6,7,9,9a-hexahydro-1H-pyrazino[1,2-a]pyrazin-2-yl]-2-deuterio-quinoline-8-carbonitrile], the pIC50 is 8.40 on human TLR8 and 8.70 on human TLR7.
In the same order, the values of `Cc1cc(N2CCN3[C@@H](C2)CN(c2ccc(C#N)c4ncccc24)C[C@H]3C)nc(N2CCNCC2)n1` [Example 31, 5-[(4R,9aR)-4-methyl-8-(6-methyl-2-piperazin-1-yl-pyrimidin-4-yl)-3,4,6,7,9,9a-hexahydro-1H-pyrazino[1,2-a]pyrazin-2-yl]quinoline-8-carbonitrile] are 7.62 and 7.66.
In the same order, the values of `C[C@@H]1CN(c2ccc(C#N)c3ncccc23)C[C@@H]2CN(Cc3ccc(N4CCNCC4)nc3)CCN21` [Example 8, 5-[(4R,9aS)-4-methyl-8-[(6-piperazin-1-yl-3-pyridyl)methyl]-3,4,6,7,9,9a-hexahydro-1H-pyrazino[1,2-a]pyrazin-2-yl]quinoline-8-carbonitrile] are 7.28 and 7.66.
As for `Cc1cc(N2CCOC[C@H](N)C2)ncc1N1CCN2CCN(c3ccc(C#N)c4ncccc34)CC2C1` (stereo partly drawn) [Example 46, 5-[2-[6-[(6R)-6-amino-1,4-oxazepan-4-yl]-4-methyl-3-pyridyl]-3,4,6,7,9,9a-hexahydro-1H-pyrazino[1,2-a]pyrazin-8-yl]quinoline-8-carbonitrile], the values for the pIC50 against human TLR8 and on human TLR7 were 7.89 and 7.85, respectively.
For `C[C@@H]1CN(c2ccc(C#N)n3ncc(F)c23)C[C@@H]2CN(CCc3ccc(N4C[C@@H](N)[C@@H](F)C4)nc3)CCN21` [Example 75, 4-[(4R,9aS)-8-[2-[6-[(3R,4S)-3-amino-4-fluoro-pyrrolidin-1-yl]-3-pyridyl]ethyl]-4-methyl-3,4,6,7,9,9a-hexahydro-1H-pyrazino[1,2-a]pyrazin-2-yl]-3-fluoro-pyrazolo[1,5-a]pyridine-7-carbonitrile] the same measures were 7.08 and 7.47.
In the same order, the values of `[2H]c1ccc2c(N3C[C@@H]4CN(Cc5ccc6c(c5)CNCC6)CCN4[C@H](C)C3)ccc(C#N)c2n1` [Example 61, 5-[(4R,9aS)-4-methyl-8-(1,2,3,4-tetrahydroisoquinolin-7-ylmethyl)-3,4,6,7,9,9a-hexahydro-1H-pyrazino[1,2-a]pyrazin-2-yl]-2-deuterio-quinoline-8-carbonitrile] are 8.10 and 7.80.
In the same order, the values of `C[C@@H]1CN(c2ccc(C#N)c3ncccc23)C[C@@H]2CN(Cc3ccc(N4CCCNCC4)nc3)CCN21` [Example 15, 5-[(4R,9aS)-8-[[6-(1,4-diazepan-1-yl)-3-pyridyl]methyl]-4-methyl-3,4,6,7,9,9a-hexahydro-JH-pyrazino[1,2-a]pyrazin-2-yl]quinoline-8-carbonitrile] are 7.55 and 7.31.
Consider `[2H]c1ccc2c(N3C[C@@H]4CN(c5ccc6c(n5)CCNC6)CCN4[C@@H](C)C3)ccc(C#N)c2n1` [Example 121, 5-[(4S,9aR)-4-methyl-8-(5,6,7,8-tetrahydro-1,6-naphthyridin-2-yl)-3,4,6,7,9,9a-hexahydro-1H-pyrazino[1,2-a]pyrazin-2-yl]-2-deuterio-quinoline-8-carbonitrile], for which the pIC50 is 9.00 against human TLR8 and 8.30 on human TLR7.
For `C[C@@H]1CN(c2ccc(C#N)c3ncccc23)C[C@@H]2CN(c3ccnc(N4CCOC[C@H](N)C4)c3)CCN21` [Example 54, 5-[(4R,9aS)-8-[2-[(6R)-6-amino-1,4-oxazepan-4-yl]-4-pyridyl]-4-methyl-3,4,6,7,9,9a-hexahydro-1H-pyrazino[1,2-a]pyrazin-2-yl]quinoline-8-carbonitrile] the same measures were 7.59 and 7.64.
For `C[C@@H]1CN(c2ccc(C#N)c3ncccc23)C[C@@H]2CN(CCc3ccc(N4CCNCC4)nc3)CCN21` [Example 11, 5-[(4R,9aS)-4-methyl-8-[2-(6-piperazin-1-yl-3-pyridyl)ethyl]-3,4,6,7,9,9a-hexahydro-1H-pyrazino[1,2-a]pyrazin-2-yl]quinoline-8-carbonitrile] the same measures were 7.68 and 8.15.
For `C[C@@H]1CN(c2ccc(C#N)c3ncccc23)C[C@@H]2CN(c3nccc(N4CCNCC4)n3)CCN21` [Example 30, 5-[(4R,9aR)-4-methyl-8-(4-piperazin-1-ylpyrimidin-2-yl)-3,4,6,7,9,9a-hexahydro-1H-pyrazino[1,2-a]pyrazin-2-yl]quinoline-8-carbonitrile] the same measures were 7.68 and 7.80.
Consider `C[C@@H]1CN(c2ccc(C#N)c3ncccc23)C[C@@H]2CN(c3ccnc(N4C[C@@H](F)[C@@H](N)C4)c3)CCN21` [Example 40, 5-[(4R,9aS)-8-[2-[(3S,4R)-3-amino-4-fluoro-pyrrolidin-1-yl]-4-pyridyl]-4-methyl-3,4,6,7,9,9a-hexahydro-1H-pyrazino[1,2-a]pyrazin-2-yl]quinoline-8-carbonitrile], for which the pIC50 against human TLR8 and on human TLR7 was 8.15 each time.
